Read-outs that look alike come from different tables or passages of the source. Blank lines part the entries; values can stand above or below the compound they belong to.
What was measured:
FGFR4 = FGFR4 (Homo sapiens, UniProt P22455); test: FGFR4 kinase inhibition (IC50); type: biochemical
FGFR3 = FGFR3 (Homo sapiens, UniProt P22607); test: FGFR3 kinase inhibition (IC50); type: biochemical
FGFR1 = FGFR1 (Homo sapiens, UniProt P11362); test: FGFR1 kinase inhibition (IC50); type: biochemical
FGFR2 = FGFR2 (Homo sapiens, UniProt P21802); test: FGFR2 kinase inhibition (IC50); type: biochemical
Protein binding = type: in vitro ADME
MDCK permeability = type: in vitro ADME; conditions: dog
[1] = Solubility in 5% DMSO and 95% of (20% HPBC in PBS); type: physicochemical
Text: The inventive compound 1 improves the FGFR4-selective inhibitory effect.

Mouse plasma stability = type: in vitro ADME; conditions: value ± SE, read-out: Ms Plasma Stability t1/2 (SE)
[2] = Pharmacokinetics in mice (IP, IV, PO); type: in vivo; conditions: for clearance / half-life / Vd / bioavailability / AUC(0-inf) / AUC(0-t) / Cmax / MRT inf / MRT last / Tmax: in vivo, mouse; for Vd: read-out: Vss
Method: FIG. 2A is the pharmacokinetic data of compound 1 administered by intraperitoneal injection (IP) into mice at 10 mg/kg, according to some embodiments of the present disclosure;
FIG. 2B is the pharmacokinetic data of compound 1 administered by intravenous injection (IV) into mice at 1 mg/kg and per os (PO) at 5 mg/kg, according to some embodiments of the present disclosure;

Hepatocyte = test: Mouse hepatocyte clearance; type: in vitro ADME; conditions: mouse hepatocytes; value ± SE
[3] = Pharmacokinetics in mice (IP, IV, PO); conditions: mouse, in vivo, PO 100 mg/kg
[4] = read-out: FGFR4 inhibition (IC50 class)
[5] = read-out: FGFR3 Inhibition (IC50 class)
[6] = read-out: FGFR1 Inhibition (IC50 class)
[7] = read-out: FGFR2 Inhibition (IC50 class)

Sequence of FGFR4 (P22455 22-802): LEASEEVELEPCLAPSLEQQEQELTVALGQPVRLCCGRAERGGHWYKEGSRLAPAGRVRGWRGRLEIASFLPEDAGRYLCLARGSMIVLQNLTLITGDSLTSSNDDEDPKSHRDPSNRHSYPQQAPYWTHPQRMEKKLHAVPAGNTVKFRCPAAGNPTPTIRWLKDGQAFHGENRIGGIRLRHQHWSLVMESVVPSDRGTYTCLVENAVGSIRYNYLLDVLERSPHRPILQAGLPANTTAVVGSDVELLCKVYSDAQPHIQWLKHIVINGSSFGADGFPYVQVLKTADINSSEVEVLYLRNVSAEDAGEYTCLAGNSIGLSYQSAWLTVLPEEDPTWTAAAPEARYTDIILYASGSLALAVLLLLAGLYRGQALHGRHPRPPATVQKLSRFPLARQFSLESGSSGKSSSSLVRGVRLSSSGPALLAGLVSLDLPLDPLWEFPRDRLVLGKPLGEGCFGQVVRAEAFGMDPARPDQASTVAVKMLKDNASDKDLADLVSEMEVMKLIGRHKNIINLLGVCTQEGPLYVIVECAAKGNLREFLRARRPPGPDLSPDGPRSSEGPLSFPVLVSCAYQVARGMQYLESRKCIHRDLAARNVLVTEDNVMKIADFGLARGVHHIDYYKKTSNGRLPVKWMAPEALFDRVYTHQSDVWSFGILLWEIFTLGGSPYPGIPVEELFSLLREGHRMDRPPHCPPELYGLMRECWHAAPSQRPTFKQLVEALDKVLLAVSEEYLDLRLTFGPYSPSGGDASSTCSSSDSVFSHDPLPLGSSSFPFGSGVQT
Sequence of FGFR1 (P11362 22-822): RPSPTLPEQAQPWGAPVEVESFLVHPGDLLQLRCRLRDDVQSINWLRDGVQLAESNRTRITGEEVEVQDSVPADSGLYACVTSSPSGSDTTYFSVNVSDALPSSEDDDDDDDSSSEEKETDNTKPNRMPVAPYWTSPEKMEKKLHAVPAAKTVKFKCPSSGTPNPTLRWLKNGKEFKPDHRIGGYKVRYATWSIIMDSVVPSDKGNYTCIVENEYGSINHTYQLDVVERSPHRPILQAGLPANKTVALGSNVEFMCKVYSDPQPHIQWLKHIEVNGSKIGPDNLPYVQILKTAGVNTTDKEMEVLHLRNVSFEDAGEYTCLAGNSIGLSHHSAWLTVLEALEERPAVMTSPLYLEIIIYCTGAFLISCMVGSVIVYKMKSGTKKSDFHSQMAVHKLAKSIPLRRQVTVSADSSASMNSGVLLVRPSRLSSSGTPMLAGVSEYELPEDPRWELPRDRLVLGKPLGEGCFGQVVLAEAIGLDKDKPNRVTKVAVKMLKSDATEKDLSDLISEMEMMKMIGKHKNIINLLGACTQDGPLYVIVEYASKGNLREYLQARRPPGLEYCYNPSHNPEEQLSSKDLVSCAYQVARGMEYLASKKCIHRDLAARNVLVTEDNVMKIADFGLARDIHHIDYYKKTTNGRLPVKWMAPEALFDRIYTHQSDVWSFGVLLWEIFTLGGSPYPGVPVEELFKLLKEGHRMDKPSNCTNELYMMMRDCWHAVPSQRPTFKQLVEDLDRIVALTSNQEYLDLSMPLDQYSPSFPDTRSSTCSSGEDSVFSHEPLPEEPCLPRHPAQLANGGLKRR
Sequence of FGFR3 (P22607 23-806): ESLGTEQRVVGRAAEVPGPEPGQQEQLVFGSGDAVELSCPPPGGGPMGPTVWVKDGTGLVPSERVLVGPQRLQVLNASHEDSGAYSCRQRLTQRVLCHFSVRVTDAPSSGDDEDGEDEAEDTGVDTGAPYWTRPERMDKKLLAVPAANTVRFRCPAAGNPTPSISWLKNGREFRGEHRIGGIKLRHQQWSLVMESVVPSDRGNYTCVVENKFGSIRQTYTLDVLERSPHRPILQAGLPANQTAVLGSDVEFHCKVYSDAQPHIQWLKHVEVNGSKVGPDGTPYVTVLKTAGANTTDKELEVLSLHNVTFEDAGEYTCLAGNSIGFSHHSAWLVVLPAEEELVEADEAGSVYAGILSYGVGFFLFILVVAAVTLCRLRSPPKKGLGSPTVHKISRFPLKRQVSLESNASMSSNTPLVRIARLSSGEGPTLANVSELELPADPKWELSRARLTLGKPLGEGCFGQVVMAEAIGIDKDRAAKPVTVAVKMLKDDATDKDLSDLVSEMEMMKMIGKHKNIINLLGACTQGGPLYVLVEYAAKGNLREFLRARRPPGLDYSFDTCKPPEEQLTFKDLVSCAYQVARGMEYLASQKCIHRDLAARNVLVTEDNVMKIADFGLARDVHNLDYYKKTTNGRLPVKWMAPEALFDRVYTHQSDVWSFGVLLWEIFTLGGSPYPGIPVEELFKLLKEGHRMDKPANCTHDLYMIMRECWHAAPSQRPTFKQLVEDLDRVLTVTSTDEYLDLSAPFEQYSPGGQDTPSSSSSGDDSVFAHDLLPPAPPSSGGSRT
Sequence of FGFR2 (P21802 22-821): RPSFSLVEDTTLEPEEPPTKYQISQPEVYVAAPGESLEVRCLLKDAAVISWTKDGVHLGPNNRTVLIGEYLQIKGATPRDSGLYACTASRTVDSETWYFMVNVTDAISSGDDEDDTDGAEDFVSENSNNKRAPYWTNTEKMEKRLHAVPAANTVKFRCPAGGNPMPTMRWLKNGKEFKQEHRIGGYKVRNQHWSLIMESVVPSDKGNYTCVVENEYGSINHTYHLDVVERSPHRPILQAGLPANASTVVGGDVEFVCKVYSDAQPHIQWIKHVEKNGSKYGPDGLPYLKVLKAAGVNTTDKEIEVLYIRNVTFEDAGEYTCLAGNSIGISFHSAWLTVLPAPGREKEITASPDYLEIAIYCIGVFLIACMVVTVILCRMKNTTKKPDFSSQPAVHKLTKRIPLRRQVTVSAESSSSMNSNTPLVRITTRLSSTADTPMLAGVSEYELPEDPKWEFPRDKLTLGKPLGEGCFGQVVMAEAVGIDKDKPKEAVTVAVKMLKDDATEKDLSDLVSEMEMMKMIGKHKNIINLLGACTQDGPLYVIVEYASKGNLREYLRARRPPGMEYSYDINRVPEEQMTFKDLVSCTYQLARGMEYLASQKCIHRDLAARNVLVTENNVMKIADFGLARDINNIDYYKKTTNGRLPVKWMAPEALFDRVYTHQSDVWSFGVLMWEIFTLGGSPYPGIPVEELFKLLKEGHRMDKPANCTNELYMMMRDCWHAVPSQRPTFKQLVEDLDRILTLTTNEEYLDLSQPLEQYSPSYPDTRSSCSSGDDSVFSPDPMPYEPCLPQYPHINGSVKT

Structure (SMILES): C=CC(=O)N[C@H]1CC[C@H]1Nc1cc(-c2cccnc2Nc2c(Cl)c(OC)cc(OC)c2Cl)ncn1 [Compound 3]
IC50 (FGFR4; [4]): 100 to 1000 nM

Structure (SMILES): C=CC(=O)Nc1ncn(C)c1Nc1cc(-c2cccnc2Nc2c(Cl)c(OC)cc(OC)c2Cl)ncn1 [Compound 13, N-[5-[[6-[2-(2,6-dichloro-3,5-dimethoxy-anilino)-3-pyridyl]pyrimidin-4-yl]amino]-1-methyl-imidazol-4-yl]prop-2-enamide]
IC50 (FGFR4; [4]): ≥ 1000 nM

Structure (SMILES): C=CC(=O)N[C@H]1CCOC[C@H]1Nc1cc(-c2cccnc2Nc2c(Cl)c(OC)cc(OC)c2Cl)ncn1 [Compound 4]
IC50 (FGFR4; [4]): 10 to 100 nM

Structure (SMILES): C=CC(=O)N[C@H]1CCC[C@H]1Nc1cc(-c2cccnc2Nc2c(Cl)c(OC)cc(OC)c2Cl)ncn1 (single isomer, unassigned) [Compound 16, N-[cis-2-[[6-[2-(2,6-dichloro-3,5-dimethoxy-anilino)-3-pyridyl]pyrimidin-4-yl]amino]cyclopentyl]prop-2-enamide]
IC50 (FGFR4; [4]): 100 to 1000 nM

Structure (SMILES): C=CC(=O)N[C@H]1COC[C@H]1Nc1cc(-c2cccnc2Nc2c(Cl)c(OC)cc(OC)c2Cl)ncn1 [Compound 1]
IC50 (FGFR3; [5]): ≥ 1000 nM | IC50 (FGFR3; read-out: IC50 towards FGFR3): 4440 nM | IC50 (FGFR1; [6]): ≥ 1000 nM | IC50 (FGFR1; read-out: IC50 towards FGFR1): 1280 nM | fraction unbound (Protein binding): 0.08 | IC50 (FGFR4; [4]): 10 to 100 nM | IC50 (FGFR4; read-out: IC50 towards FGFR4): 20 nM | Papp A→B (MDCK permeability): 25.8 ×10⁻⁶ cm/s | solubility [1]: much-improved solubility | IC50 (FGFR2; [7]): ≥ 1000 nM | IC50 (FGFR2; read-out: IC50 towards FGFR2): 1870 nM | half-life (Mouse plasma stability): 19.1 ± 5.78 h | clearance ([2]; intravenous, Table 2 summary): 26.7 mL/min/kg | half-life ([2]; intravenous, Table 2 summary): 0.52 h | Vd ([2]; intravenous, Table 2 summary): 0.88 L/kg | bioavailability ([2]; oral, Table 2 summary): 20.9% | AUC(0-inf) ([2]; mice, IP 10 mg/kg): 9610 ng·h/mL | AUC(0-t) ([2]; mice, IP 10 mg/kg): 9610 ng·h/mL | Cmax ([2]; mice, IP 10 mg/kg): 14900 ng/mL | MRT inf ([2]; mice, IP 10 mg/kg): 0.67 h | MRT last ([2]; mice, IP 10 mg/kg): 0.67 h | Tmax ([2]; mice, IP 10 mg/kg): 0.25 h | half-life ([2]; mice, IP 10 mg/kg): 2.81 h | AUC(0-inf) ([2]; mice, IV 1 mg/kg): 621 ng·h/mL | AUC(0-t) ([2]; mice, IV 1 mg/kg): 618 ng·h/mL | Cmax ([2]; mice, IV 1 mg/kg): 849 ng/mL | MRT inf ([2]; mice, IV 1 mg/kg): 0.537 h | MRT last ([2]; mice, IV 1 mg/kg): 0.515 h | Tmax ([2]; mice, IV 1 mg/kg): 0.083 h | clearance ([2]; mice, IV 1 mg/kg): 27.2 mL/min/kg | half-life ([2]; mice, IV 1 mg/kg): 0.522 h | Vd ([2]; mice, IV 1 mg/kg): 0.876 L/kg | AUC(0-inf) ([2]; mice, PO 5 mg/kg): 648 ng·h/mL | AUC(0-t) ([2]; mice, PO 5 mg/kg): 465 ng·h/mL | Cmax ([2]; mice, PO 5 mg/kg): 119 ng/mL | MRT inf ([2]; mice, PO 5 mg/kg): 4.02 h | MRT last ([2]; mice, PO 5 mg/kg): 3.42 h | Tmax ([2]; mice, PO 5 mg/kg): 3.17 h | bioavailability ([2]; mice, PO 5 mg/kg): 20.9% | half-life ([2]; mice, PO 5 mg/kg): 2.73 h | Hepatocyte Clin Ms (SE) (Hepatocyte): 43.6 ± 1.3 µL/min/1e6 cells

Structure (SMILES): C=CC(=O)Nc1cccc(C)c1Nc1cc(-c2cccnc2Nc2c(Cl)c(OC)cc(OC)c2Cl)ncn1 [Compound 5, N-(2-((6-(2-((2,6-dichloro-3,5-dimethoxyphenyl)amino)pyridin-3-yl)pyrimidin-4-yl)amino)-3-methylphenyl)acrylamide, reference compound]
Papp A→B (MDCK permeability): 11.4 ×10⁻⁶ cm/s | solubility [1]: poor solubility | AUC(0-t) [3]: 1450 ng·h/mL | Tmax [3]: 6.67 h | bioavailability [3]: 8.09% | half-life (Mouse plasma stability): 3.69 ± 0.928 h | clearance ([2]; intravenous, Table 2 summary): 14 mL/min/kg | half-life ([2]; intravenous, Table 2 summary): 15 h | bioavailability ([2]; oral, Table 2 summary): 8% | T1/2 ([2]; mice, IP 10 mg/kg): 1.23 h | AUC(0-inf) ([2]; mice, IP 10 mg/kg): 1280 ng·h/mL | AUC(0-t) ([2]; mice, IP 10 mg/kg): 1270 ng·h/mL | Cmax ([2]; mice, IP 10 mg/kg): 865 ng/mL | MRT inf ([2]; mice, IP 10 mg/kg): 1.66 h | MRT last ([2]; mice, IP 10 mg/kg): 1.57 h | Tmax ([2]; mice, IP 10 mg/kg): 0.25 h | AUC(0-inf) ([2]; mice, IV 5 mg/kg): 1240 ng·h/mL | AUC(0-t) ([2]; mice, IV 5 mg/kg): 896 ng·h/mL | Cmax ([2]; mice, IV 5 mg/kg): 470 ng/mL | MRT inf ([2]; mice, IV 5 mg/kg): 18.5 h | MRT last ([2]; mice, IV 5 mg/kg): 7.71 h | Tmax ([2]; mice, IV 5 mg/kg): 0.083 h | clearance ([2]; mice, IV 5 mg/kg): 13.9 mL/min/kg | half-life ([2]; mice, IV 5 mg/kg): 15.1 h | Vd ([2]; mice, IV 5 mg/kg): 15.3 L/kg | Cmax ([2]; mice, PO 100 mg/kg): 180 ng/mL | MRT last ([2]; mice, PO 100 mg/kg): 6.1 h | Hepatocyte Clin Ms (SE) (Hepatocyte): 41.7 ± 1.73 µL/min/1e6 cells

Structure (SMILES): C=CC(=O)Nc1cc(OCC2CN(C)C2)ccc1Nc1cc(-c2cccnc2Nc2c(Cl)c(OC)cc(OC)c2Cl)ncn1 [Compound 7, N-[2-[[6-[2-(2,6-dichloro-3,5-dimethoxy-anilino)-3-pyridyl]pyrimidin-4-yl]amino]-5-[(1-methylazetidin-3-yl)methoxy]phenyl]prop-2-enamide]
IC50 (FGFR3; [5]): ≥ 1000 nM | IC50 (FGFR1; [6]): 100 to 1000 nM | IC50 (FGFR4; [4]): ≤ 10 nM | IC50 (FGFR2; [7]): 100 to 1000 nM

Results, then the compound that gave them:

IC50 (FGFR3; [5]): ≥ 1000 nM | IC50 (FGFR1; [6]): ≥ 1000 nM | IC50 (FGFR4; [4]): ≤ 10 nM | IC50 (FGFR2; [7]): ≥ 1000 nM
Structure (SMILES): C=CC(=O)Nc1cc(OC2COC2)ccc1Nc1cc(-c2cccnc2Nc2c(Cl)c(OC)cc(OC)c2Cl)ncn1 [Compound 11, N-[2-[[6-[2-(2,6-dichloro-3,5-dimethoxy-anilino)-3-pyridyl]pyrimidin-4-yl]amino]-5-(oxetan-3-yloxy)phenyl]prop-2-enamide]

IC50 (FGFR3; [5]): 100 to 1000 nM | IC50 (FGFR1; [6]): 10 to 100 nM | IC50 (FGFR4; [4]): ≤ 10 nM | IC50 (FGFR2; [7]): 100 to 1000 nM
Structure (SMILES): C=CC(=O)NC1CC1Nc1cc(-c2cccnc2Nc2c(Cl)c(OC)cc(OC)c2Cl)ncn1 (centres unmarked) [Compound 2]

IC50 (FGFR3; [5]): ≥ 1000 nM | IC50 (FGFR1; [6]): 100 to 1000 nM | IC50 (FGFR4; [4]): ≤ 10 nM | IC50 (FGFR2; [7]): 100 to 1000 nM
Structure (SMILES): C=CC(=O)Nc1cc(OC2CCN(C)C2)ccc1Nc1cc(-c2cccnc2Nc2c(Cl)c(OC)cc(OC)c2Cl)ncn1 (centres unmarked) [Compound 9, N-[2-[[6-[2-(2,6-dichloro-3,5-dimethoxy-anilino)-3-pyridyl]pyrimidin-4-yl]amino]-5-(1-methylpyrrolidin-3-yl)oxy-phenyl]prop-2-enamide]

IC50 (FGFR3; [5]): ≥ 1000 nM | IC50 (FGFR1; [6]): ≥ 1000 nM | IC50 (FGFR4; [4]): ≤ 10 nM | IC50 (FGFR2; [7]): 100 to 1000 nM
Structure (SMILES): C=CC(=O)Nc1cc(OC2CCN(C)CC2)ccc1Nc1cc(-c2cccnc2Nc2c(Cl)c(OC)cc(OC)c2Cl)ncn1 [Compound 8, N-[2-[[6-[2-(2,6-dichloro-3,5-dimethoxy-anilino)-3-pyridyl]pyrimidin-4-yl]amino]-5-[(1-methyl-4-piperidyl)oxy]phenyl]prop-2-enamide]

IC50 (FGFR3; [5]): ≥ 1000 nM | IC50 (FGFR1; [6]): ≥ 1000 nM | IC50 (FGFR4; [4]): ≤ 10 nM | IC50 (FGFR2; [7]): ≥ 1000 nM
Structure (SMILES): C=CC(=O)Nc1cc(OCCN(CC)CC)ccc1Nc1cc(-c2cccnc2Nc2c(Cl)c(OC)cc(OC)c2Cl)ncn1 [Compound 15]

IC50 (FGFR3; [5]): ≥ 1000 nM | IC50 (FGFR1; [6]): ≥ 1000 nM | IC50 (FGFR4; [4]): ≤ 10 nM | IC50 (FGFR2; [7]): ≥ 1000 nM
Structure (SMILES): C=CC(=O)Nc1cc(OCCN(C)C)ccc1Nc1cc(-c2cccnc2Nc2c(Cl)c(OC)cc(OC)c2Cl)ncn1 [Compound 14]

IC50 (FGFR3; [5]): ≥ 1000 nM | IC50 (FGFR1; [6]): 100 to 1000 nM | IC50 (FGFR4; [4]): ≤ 10 nM | IC50 (FGFR2; [7]): 100 to 1000 nM
Structure (SMILES): C=CC(=O)Nc1cc(OC2CN(C)C2)ccc1Nc1cc(-c2cccnc2Nc2c(Cl)c(OC)cc(OC)c2Cl)ncn1 [Compound 6, N-[2-[[6-[2-(2,6-dichloro-3,5-dimethoxy-anilino)-3-pyridyl]pyrimidin-4-yl]amino]-5-(1-methylazetidin-3-yl)oxy-phenyl]prop-2-enamide]

IC50 (FGFR3; [5]): ≥ 1000 nM | IC50 (FGFR1; [6]): 100 to 1000 nM | IC50 (FGFR4; [4]): ≤ 10 nM | IC50 (FGFR2; [7]): 100 to 1000 nM
Structure (SMILES): C=CC(=O)Nc1cc(OCCN2CCCC2)ccc1Nc1cc(-c2cccnc2Nc2c(Cl)c(OC)cc(OC)c2Cl)ncn1 [Compound 12, N-[2-[[6-[2-(2,6-dichloro-3,5-dimethoxy-anilino)-3-pyridyl]pyrimidin-4-yl]amino]-5-(2-pyrrolidin-1-ylethoxy)phenyl]prop-2-enamide]

IC50 (FGFR3; [5]): ≥ 1000 nM | IC50 (FGFR1; [6]): ≥ 1000 nM | IC50 (FGFR4; [4]): ≤ 10 nM | IC50 (FGFR2; [7]): ≥ 1000 nM
Structure (SMILES): C=CC(=O)Nc1cc(OC2CCOC2)ccc1Nc1cc(-c2cccnc2Nc2c(Cl)c(OC)cc(OC)c2Cl)ncn1 (centres unmarked) [Compound 10, N-[2-[[6-[2-(2,6-dichloro-3,5-dimethoxy-anilino)-3-pyridyl]pyrimidin-4-yl]amino]-5-tetrahydrofuran-3-yloxy-phenyl]prop-2-enamide]
